Laboratory results reported in ChEMBL document CHEMBL1201862, “PubChem BioAssay data set” (2004).
Calls of active or inactive are those of the source.

Assays:
[1] = target: Transitional endoplasmic reticulum ATPase (Homo sapiens, UniProt P55072); test: p97 ATPase inhibitors, dose response, biochemical (AID 1534)
[2] = A cytotoxicity screen of small molecule inhibitors of the PhoP region in Salmonella typhi identified in the primary screen. [Related pubchem assays: 1850, 1864, 1985 ]; type: functional
[3] = target: Transitional endoplasmic reticulum ATPase (Homo sapiens, UniProt P55072, C522A); test: C522A mutant p97 ATPase inhibitors, dose response, counter-screen for p97 inhibitor project, biochemical, luminescence (AID 1544)
Chain of Transitional endoplasmic reticulum ATPase (Homo sapiens, UniProt P55072, C522A) (P55072 2-806 C522A limits assumed): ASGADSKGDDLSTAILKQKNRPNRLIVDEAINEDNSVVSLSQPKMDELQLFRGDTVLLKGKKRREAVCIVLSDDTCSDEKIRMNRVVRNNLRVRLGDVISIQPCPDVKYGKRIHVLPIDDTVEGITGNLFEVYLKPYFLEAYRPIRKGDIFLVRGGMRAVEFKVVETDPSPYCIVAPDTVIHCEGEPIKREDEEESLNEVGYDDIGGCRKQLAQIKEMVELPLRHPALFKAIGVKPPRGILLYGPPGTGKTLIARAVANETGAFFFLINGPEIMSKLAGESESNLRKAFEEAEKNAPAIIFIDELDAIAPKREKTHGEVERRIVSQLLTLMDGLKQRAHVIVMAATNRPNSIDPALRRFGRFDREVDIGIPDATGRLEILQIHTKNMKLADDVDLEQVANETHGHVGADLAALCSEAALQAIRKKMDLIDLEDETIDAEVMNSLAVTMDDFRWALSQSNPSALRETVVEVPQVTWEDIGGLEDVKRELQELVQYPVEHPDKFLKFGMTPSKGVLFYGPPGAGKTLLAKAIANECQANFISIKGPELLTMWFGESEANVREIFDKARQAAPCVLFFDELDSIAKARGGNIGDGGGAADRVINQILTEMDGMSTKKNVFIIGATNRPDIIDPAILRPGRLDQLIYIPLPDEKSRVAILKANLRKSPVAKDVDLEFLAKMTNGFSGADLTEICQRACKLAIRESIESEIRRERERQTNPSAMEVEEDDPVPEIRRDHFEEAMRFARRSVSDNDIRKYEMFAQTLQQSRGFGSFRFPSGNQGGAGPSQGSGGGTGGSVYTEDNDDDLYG

Vero [4] = test: cells; type: functional, cell-based; conditions: Chlorocebus sabaeus
[5] = target: T1, Intestinal-type alkaline phosphatase (Homo sapiens, UniProt P09923); test: human IAP inhibitors, dose response, biochemical, luminescent, uHTS hits, set 2 (AID 488793); type: functional
T1 sequence (P09923 whole entry): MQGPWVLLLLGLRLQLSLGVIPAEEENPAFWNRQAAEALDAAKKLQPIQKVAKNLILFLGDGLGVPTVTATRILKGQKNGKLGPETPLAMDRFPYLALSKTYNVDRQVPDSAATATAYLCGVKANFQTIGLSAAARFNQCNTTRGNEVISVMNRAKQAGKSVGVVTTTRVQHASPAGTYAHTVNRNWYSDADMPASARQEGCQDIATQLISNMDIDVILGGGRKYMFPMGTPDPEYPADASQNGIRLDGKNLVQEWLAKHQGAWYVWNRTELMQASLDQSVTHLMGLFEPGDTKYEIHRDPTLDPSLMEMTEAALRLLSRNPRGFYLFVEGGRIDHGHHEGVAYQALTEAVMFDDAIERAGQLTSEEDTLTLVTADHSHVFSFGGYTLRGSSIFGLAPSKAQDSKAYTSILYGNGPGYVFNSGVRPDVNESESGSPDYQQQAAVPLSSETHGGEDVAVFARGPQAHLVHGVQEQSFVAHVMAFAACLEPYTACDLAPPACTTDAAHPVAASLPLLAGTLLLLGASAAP

[6] = target: Intestinal-type alkaline phosphatase (Mus musculus, UniProt P24822); test: PubChem AID 488874; type: functional
Chain of Intestinal-type alkaline phosphatase (Mus musculus, UniProt P24822) (P24822 whole entry): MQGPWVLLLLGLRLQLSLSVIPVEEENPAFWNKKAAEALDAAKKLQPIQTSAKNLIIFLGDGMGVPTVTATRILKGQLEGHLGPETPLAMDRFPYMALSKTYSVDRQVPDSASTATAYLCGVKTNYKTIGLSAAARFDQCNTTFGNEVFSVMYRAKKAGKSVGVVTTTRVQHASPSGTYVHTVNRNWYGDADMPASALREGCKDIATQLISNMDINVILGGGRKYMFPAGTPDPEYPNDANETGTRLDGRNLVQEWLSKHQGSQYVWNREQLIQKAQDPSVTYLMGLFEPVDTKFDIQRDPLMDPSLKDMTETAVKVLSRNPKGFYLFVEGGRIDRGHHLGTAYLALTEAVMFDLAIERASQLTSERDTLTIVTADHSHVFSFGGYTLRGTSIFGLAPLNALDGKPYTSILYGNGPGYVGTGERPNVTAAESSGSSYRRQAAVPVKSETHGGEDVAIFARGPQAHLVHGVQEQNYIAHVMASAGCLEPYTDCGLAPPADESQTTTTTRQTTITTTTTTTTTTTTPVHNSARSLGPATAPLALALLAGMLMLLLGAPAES

[7] = target: T2, Alkaline phosphatase, tissue-nonspecific isozyme (Homo sapiens, UniProt P05186); test: TNAP enzyme activators, dose response, selectivity assay for human IAP activator project, biochemical, TNAP isozyme, human IAP uHTS hits (AID 488886); type: functional;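 further: potency of compounds raising TNAP activity as a selectivity check on IAP activators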
T2 sequence (P05186 whole entry): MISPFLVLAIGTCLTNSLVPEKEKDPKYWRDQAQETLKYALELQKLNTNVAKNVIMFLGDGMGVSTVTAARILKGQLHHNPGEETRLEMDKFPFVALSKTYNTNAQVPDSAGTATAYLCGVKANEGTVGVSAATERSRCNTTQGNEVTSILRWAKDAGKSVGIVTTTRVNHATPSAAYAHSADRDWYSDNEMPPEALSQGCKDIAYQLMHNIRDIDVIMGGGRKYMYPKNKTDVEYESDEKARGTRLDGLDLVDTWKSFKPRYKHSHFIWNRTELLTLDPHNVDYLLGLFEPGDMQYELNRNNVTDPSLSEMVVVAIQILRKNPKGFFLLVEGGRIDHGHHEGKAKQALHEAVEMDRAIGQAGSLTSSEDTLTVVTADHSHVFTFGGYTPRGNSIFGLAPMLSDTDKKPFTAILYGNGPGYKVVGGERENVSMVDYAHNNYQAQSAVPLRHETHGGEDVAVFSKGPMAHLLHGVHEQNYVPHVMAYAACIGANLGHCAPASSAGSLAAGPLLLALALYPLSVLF

[8] = target: T1, Intestinal-type alkaline phosphatase; test: Dose Response confirmation of uHTS hits from a small molecule inhibitors of human intestinal alkaline phosphatase via a luminescent assay. [Related pubchem assays (depositor defined):AID2544, AID2574]; type: functional
[9] = target: Peroxisome proliferator-activated receptor gamma/Nuclear receptor corepressor 2 (Homo sapiens, UniProt P37231+Q9Y618); type: functional
Large T antigen = Large T antigen (Simian virus 40, UniProt P03070); type: functional, Betapolyomavirus macacae;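 further: Confirmatory-stage PubChem screen for compounds that inhibit SV40 T antigen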
Chain of Large T antigen (P03070 whole entry): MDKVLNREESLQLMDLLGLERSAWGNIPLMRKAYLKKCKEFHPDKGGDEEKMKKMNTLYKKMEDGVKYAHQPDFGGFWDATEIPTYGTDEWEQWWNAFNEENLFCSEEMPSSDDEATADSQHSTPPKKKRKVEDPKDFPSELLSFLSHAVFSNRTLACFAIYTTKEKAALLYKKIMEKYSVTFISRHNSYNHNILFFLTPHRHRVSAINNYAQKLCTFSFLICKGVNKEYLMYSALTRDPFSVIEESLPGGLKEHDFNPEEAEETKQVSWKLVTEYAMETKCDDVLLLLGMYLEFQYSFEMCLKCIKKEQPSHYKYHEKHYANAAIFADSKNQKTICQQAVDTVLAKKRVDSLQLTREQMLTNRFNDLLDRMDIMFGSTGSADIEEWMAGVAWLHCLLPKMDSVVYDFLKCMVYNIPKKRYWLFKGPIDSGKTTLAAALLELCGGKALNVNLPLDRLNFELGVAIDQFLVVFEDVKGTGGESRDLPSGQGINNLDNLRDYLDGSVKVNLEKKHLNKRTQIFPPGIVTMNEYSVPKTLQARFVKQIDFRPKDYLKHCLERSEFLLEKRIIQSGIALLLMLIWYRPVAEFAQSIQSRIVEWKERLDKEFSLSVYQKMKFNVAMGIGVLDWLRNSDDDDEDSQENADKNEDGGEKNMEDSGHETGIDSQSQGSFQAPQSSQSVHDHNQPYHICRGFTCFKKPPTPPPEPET

[10] = target: Photoreceptor-specific nuclear receptor (Homo sapiens, UniProt Q9Y5X4); type: functional;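 further: potency for compounds that break the NR2E3 corepressor complex and count as activators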
Chain of Photoreceptor-specific nuclear receptor (Q9Y5X4 whole entry): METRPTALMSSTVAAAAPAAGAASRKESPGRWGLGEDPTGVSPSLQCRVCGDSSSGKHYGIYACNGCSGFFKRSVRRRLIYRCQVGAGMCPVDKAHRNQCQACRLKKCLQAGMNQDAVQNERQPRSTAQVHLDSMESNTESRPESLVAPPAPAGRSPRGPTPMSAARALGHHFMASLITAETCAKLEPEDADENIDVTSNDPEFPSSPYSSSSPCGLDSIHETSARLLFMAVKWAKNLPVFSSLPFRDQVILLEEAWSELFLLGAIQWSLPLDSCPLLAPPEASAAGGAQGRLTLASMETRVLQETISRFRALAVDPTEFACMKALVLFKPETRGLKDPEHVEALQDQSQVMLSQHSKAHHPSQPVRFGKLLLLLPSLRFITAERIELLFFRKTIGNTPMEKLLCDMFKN

[11] = target: T3, Calpain-2 catalytic subunit (Sus scrofa, UniProt P43367); test: pig calpain II inhibitor potency, dose response, biochemical, fluorogenic peptide substrate (AID 1420); type: functional
T3 sequence (P43367 whole entry): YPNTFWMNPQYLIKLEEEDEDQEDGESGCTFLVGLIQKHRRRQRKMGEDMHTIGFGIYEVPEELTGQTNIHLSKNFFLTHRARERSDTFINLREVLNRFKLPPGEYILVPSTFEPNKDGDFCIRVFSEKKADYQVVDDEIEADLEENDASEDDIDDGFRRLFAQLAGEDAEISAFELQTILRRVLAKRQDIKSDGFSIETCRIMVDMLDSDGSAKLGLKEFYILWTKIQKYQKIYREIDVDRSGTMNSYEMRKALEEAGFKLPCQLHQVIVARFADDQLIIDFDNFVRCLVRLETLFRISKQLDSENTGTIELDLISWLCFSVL

[12] = inhibitors of Bluetongue virus cytopathic effect, confirmation, arbovirus, BSR cells (AID 1250); type: functional;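 further: protection from viral cytopathic effect measured as cell viability by ATP luminescence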
Bcl-2-like protein 10 = target: T4, Bcl-2-like protein 10 (Homo sapiens, UniProt Q9HD36); test: Biochemical TR3 FP assay of Bcl-B inhibitor potency, EC50 (AID 1243); type: functional
T4 sequence (Q9HD36 whole entry): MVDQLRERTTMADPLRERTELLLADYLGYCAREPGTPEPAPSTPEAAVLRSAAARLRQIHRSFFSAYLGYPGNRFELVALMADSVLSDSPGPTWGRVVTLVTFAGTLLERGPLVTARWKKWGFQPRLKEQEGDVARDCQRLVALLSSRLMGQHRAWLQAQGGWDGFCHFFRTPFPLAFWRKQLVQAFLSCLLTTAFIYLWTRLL

[13] = target: T5, Eukaryotic translation initiation factor 2-alpha kinase 3 (Homo sapiens, UniProt Q9NZJ5); test: Dose response cell-based high-throughput screening assay to measure PERK inhibition. [Related pubchem assays: 1416 ]; type: functional
T5 sequence (Q9NZJ5 whole entry): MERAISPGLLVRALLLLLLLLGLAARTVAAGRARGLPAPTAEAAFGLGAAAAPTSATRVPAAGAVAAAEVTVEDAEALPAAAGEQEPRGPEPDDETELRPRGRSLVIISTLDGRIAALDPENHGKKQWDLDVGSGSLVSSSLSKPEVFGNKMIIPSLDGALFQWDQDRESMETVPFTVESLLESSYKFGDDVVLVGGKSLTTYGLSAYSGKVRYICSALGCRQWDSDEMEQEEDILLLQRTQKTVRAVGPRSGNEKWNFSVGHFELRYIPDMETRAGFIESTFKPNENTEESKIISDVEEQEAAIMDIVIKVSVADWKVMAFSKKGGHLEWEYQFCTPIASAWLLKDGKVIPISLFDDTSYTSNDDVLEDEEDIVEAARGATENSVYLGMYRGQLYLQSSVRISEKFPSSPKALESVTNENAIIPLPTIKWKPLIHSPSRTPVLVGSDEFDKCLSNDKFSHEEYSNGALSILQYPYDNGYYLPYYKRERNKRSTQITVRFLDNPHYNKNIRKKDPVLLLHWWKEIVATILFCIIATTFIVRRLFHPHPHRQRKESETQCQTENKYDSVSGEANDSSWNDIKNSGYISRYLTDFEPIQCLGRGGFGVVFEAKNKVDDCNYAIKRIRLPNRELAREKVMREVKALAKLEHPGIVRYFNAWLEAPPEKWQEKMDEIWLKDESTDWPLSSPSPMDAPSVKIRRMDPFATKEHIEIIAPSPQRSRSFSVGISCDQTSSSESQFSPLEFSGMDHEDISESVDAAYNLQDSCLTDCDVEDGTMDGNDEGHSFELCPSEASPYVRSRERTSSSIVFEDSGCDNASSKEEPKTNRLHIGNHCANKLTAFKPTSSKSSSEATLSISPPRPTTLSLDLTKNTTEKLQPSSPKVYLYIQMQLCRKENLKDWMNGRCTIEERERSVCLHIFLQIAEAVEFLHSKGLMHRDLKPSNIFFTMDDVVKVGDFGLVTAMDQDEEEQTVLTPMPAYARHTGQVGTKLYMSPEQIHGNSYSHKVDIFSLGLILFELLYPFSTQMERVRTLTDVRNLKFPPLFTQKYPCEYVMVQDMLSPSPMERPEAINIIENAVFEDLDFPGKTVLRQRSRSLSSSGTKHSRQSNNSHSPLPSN

[14] = target: T5, Eukaryotic translation initiation factor 2-alpha kinase 3; test: Counterscreen assay for PERK inhibitors: Dose response cell-based high throughput screening assay to measure inhibition of PERK at 6 hours. [Related pubchem assays: 1522, 1416 ]; type: functional
Vero [15] = test: Vero E6 cell cytotoxicity, SAR follow-up, cytotoxicity control for West Nile virus antiviral project, synthesized analogs (AID 2244); type: functional; conditions: Chlorocebus sabaeus
Vero [16] = test: cytotoxicity of synthesized analogs in Vero 76, SAR follow-up, cytotoxicity control for West Nile virus antiviral project, Vero 76 cells (AID 2414); type: functional; conditions: Chlorocebus sabaeus
Vero [17] = test: cytotoxicity of synthesized analogs in Vero cells, SAR follow-up, cytotoxicity control for West Nile virus antiviral project, cell-based, set II (AID 2402); type: functional; conditions: Chlorocebus sabaeus

Chain of Transitional endoplasmic reticulum ATPase (Homo sapiens, UniProt P55072) (P55072 whole entry): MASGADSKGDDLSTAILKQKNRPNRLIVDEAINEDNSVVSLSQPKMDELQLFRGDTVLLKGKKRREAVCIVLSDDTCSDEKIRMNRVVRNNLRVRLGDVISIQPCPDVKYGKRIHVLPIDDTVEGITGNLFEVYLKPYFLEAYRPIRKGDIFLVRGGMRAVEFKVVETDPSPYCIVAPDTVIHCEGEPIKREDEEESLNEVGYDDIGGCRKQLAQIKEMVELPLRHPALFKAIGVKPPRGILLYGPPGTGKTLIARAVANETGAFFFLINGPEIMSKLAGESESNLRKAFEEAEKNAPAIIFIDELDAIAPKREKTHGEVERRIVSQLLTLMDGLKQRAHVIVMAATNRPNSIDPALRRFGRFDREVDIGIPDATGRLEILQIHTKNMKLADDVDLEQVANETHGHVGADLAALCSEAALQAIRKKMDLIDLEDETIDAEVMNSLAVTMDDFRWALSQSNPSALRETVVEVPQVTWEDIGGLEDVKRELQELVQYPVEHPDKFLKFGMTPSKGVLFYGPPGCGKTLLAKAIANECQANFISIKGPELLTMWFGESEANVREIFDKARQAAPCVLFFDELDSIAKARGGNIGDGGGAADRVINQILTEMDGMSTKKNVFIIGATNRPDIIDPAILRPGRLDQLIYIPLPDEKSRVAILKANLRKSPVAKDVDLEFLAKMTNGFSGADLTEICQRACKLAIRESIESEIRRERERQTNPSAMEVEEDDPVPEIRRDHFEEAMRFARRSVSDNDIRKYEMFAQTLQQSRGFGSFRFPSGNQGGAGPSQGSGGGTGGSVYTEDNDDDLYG

Question: With `[O-][n+]1onc2c1CCc1[nH]c(-c3ccccc3)nc1-2` as the compound, how does the IC50 [1] read?
Answer: > 50 µM (not active)

Question: What about the EC50 [2] of the same compound?
Answer: > 50 µM (active)

Question: What about the IC50 [3] of the same compound?
Answer: > 50 µM (not active)

Question: And the IC50 (Vero [4])?
Answer: 14 µM (active)

Question: Which results are given for `O=c1c2cc(O)c(O)cc2oc2cc(O)c(C3OC(CO)C(O)C(O)C3O)c(O)c12` (centres undefined)?
Answer: IC50 [5]: 0.262 µM (active); IC50 [6]: 14 µM (active); EC50 [7]: > 100 µM (inactive); IC50 [8]: 1.19 µM (active); IC50 [9]: > 39.8 µM (not active); IC50 (Large T antigen): 8.63 µM (active); IC50 [10]: > 39.8 µM (not active)

Question: Which IC50 [11] does the source give for `COc1ccc(OC)c(N(CC(=O)N2CCN(c3cc(Cl)ccc3C)CC2)S(C)(=O)=O)c1` here?
Answer: 11.7 µM (not active)

Question: And the IC50 [12]?
Answer: 38.9 µM (active)

Question: Which EC50 (Bcl-2-like protein 10) does the source give for `Cc1ccc(C)n1-c1ccc(Br)cc1C(=O)O` here?
Answer: 3.51 µM (active)

Question: Which EC50 [13] does the source give for `COc1ccc(/C=C/C(=O)N[C@@H](C)C(=O)O)cc1` here?
Answer: > 55.7 µM (not active)

Question: And the EC50 [14]?
Answer: > 55.7 µM (not active)

Question: What does the source list for `O=c1c2cc(Br)ccc2nc2n1CC/C2=C/c1ccccc1`?
Answer: CC50 (Vero [15]): > 40 µM (active); CC50 (Vero [16]): > 66.6 µM (active); CC50 (Vero [17]): 33.3 µM (active)
